We go through 16 compounds from patent US9555038B2, “Heterocycle-substituted tetracyclic compounds and methods of use thereof for the treatment of viral diseases” (Merck Sharp & Dohme Corp., priority 2013, dated 2017).

Structures are written as SMILES. pIC50: −log10 of the molar value. Like-named read-outs stand apart in the source and are kept apart here.

In one assay the test system is HCV replicon 1AQ30D. The experiment in a line: Cell-based HCV Replicon Assay B, replicon 1AQ30D. The following applies: for IC50: Hepatitis C virus, read-out: 1A Q30D IC50 (nM), replicon 1AQ30D; for pIC50: read-out: 1A Q30D IC50, replicon 1AQ30D. The protocol: In an alternate assay (“Replicon Assay B”), 1000 cells were seeded per well in a 384-well collagen coated black plate from Greiner bio-one (Cat #781946) in 5% FBS. Inhibitors of this invention were added at 24 h post-seeding, and the plates were incubated for 3 days. Cells were subsequently lysed with Qiagen lysis buffer (Cat #1062731) to extract the RNA. HCV replicon RNA level was measured by real-time PCR using the RNA-to-CT kit from Applied Biosystem (Cat #4392656) and genotype-specific primers and probes. The amplicon was located within NS5B. The sequence of the PCR primers are as follows: 5B.2F, ATGGACAGGCGCCCTGA (SEQ. ID NO. 1); 5B.2R, […] (SEQ. ID NO. 2); the probe sequence was FAM-labeled CACGCCATGCGCTGCGG (SEQ. ID NO. 3). To detect genotype 1A the primer 1A F, TGCGGAACCGGTGAGTACA and 1A R, […] were used; the probe sequence was FAM-[…].
The real-time RT-PCR reactions were run on ABI PRISM 7900HT or Viia7 Sequence Detection System using the following program: 48° C. for 30 minutes, 95° C. for 10 minutes, 40 cycles of 95° C. for 15 sec, 60° C. for 1 minutes. The 50% effective concentration (EC50) was the drug concentration necessary to achieve an increase in the cycle threshold (CT) of 1 over the projected baseline CT.
Data was obtained for various compounds of the present invention using the methods described in the Example above, and is presented in the table immediately below. Data for replicons 1A, 1AY93H and 2B were obtained using Replicon Assay A and data for replicons 1AQ30D and 1B were obtained using Replicon Assay B.

In another assay the test system is HCV replicon 2B. In words: Cell-based HCV Replicon Assay A, replicon 2B. The settings on record: for IC50: Hepatitis C virus, read-out: 2B IC50 (nM), replicon 2B; for pIC50: read-out: 2B IC50, replicon 2B. In outline: (§1)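 HCV replicon RNA levels are measured by multiplexed real-time RT-PCR, with cyclophilin as internal control, after 3 days of compound exposure. Compounds are tested in 10 serial dilutions starting between 333.3 nM and 1.667 nM, with 5% FBS in the medium.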

For the next assay, the system named is HCV replicon 1A. In words: Cell-based HCV Replicon Assay A, replicon 1A. In outline:
as §1
On the technique in general: Replicon systems follow genome replication, usually without infectious particles.

In another assay the test system is HCV replicon 1AY93H. The experiment in a line: Cell-based HCV Replicon Assay A, replicon 1AY93H. The settings on record: for IC50: Hepatitis C virus, read-out: 1A Y93H IC50 (nM), replicon 1AY93H; for pIC50: read-out: 1A Y93H IC50, replicon 1AY93H. In outline: as §1
The test system of the next assay is HCV replicon 1B. In words: Cell-based HCV Replicon Assay B, replicon 1B. In outline:
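Replicon cells seeded in 5% FBS; compounds added 24 h later, then 3 days' incubation. Replicon RNA quantified by real-time RT-PCR with genotype-specific primers/probes (NS5B amplicon for 1b). EC50 = concentration raising CT by 1 over projected baseline.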

The IC50 is the concentration at which inhibition is half-maximal. What is called pIC50 is −log10 of the IC50, conventionally taken in molar units. As for `COC(=O)N[C@H](C(=O)N1CCC[C@H]1c1nc(-c2cc(F)c3c(c2)OC(c2cnc(-c4cnccn4)s2)n2c-3cc3cc(-c4cnc([C@@H]5CCCN5C(=O)[C@@H](NC(=O)OC)C(C)C)[nH]4)ccc32)c[nH]1)C(C)C` (stereo partly shown) [Compound 424], the figures for the IC50 in the assay on HCV replicon 1AQ30D, in the assay with HCV replicon 2B and in the assay on HCV replicon 1AY93H were 0.058 nM, 0.003 nM and 0.0554 nM, respectively. The values for the pIC50 in the assay with HCV replicon 1A (Hepatitis C virus) and in the assay with HCV replicon 1B (Hepatitis C virus) were 11.72 and 9.16, respectively.
On to `COC(=O)N[C@H](C(=O)N1CCC[C@H]1c1ncc(-c2cc(C)c3c(c2)OC(c2cnc(C4CCC4)s2)n2c-3cc3cc(-c4cnc([C@@H]5CCCN5C(=O)[C@@H](NC(=O)OC)C(C)C)[nH]4)ccc32)[nH]1)C(C)C` (single isomer, unassigned) [Compound 204], for which the IC50 was found to be 0.772 nM in the assay on HCV replicon 1AQ30D, 0.013 nM with HCV replicon 2B and 0.0579 nM with HCV replicon 1AY93H. Moreover, the pIC50 in the assay with HCV replicon 1A (Hepatitis C virus) was 11.40; in the assay with HCV replicon 1B (Hepatitis C virus), 11.70.
On to `CCc1ncc(C2Oc3cc(-c4cnc([C@@H]5CCCN5C(=O)[C@@H](NC(=O)OC)C(C)C)[nH]4)cc(F)c3-c3cc4cc(-c5cnc([C@@H]6C[C@H]7C[C@H]7N6C(=O)[C@@H](CC(=O)OC)C(C)C)[nH]5)ccc4n32)s1` (single isomer, unassigned) [Compound 83], for which the IC50 with HCV replicon 1AQ30D was 0.12 nM. The pIC50 is 10.32 in the assay with HCV replicon 2B, 11.52 with HCV replicon 1A (Hepatitis C virus), 11.17 in the assay with HCV replicon 1AY93H and 11.52 with HCV replicon 1B (Hepatitis C virus).
As for `COC(=O)N[C@H](C(=O)N1CCC[C@H]1c1ncc(-c2cc(F)c3c(c2)OC(c2cnc(C4CC4)s2)n2c-3cc3cc(-c4cnc([C@@H]5C[C@H]6C[C@H]6N5C(=O)[C@@H](NC(=O)OC)C(C)C)[nH]4)ccc32)[nH]1)C(C)C` (single isomer, unassigned) [Compound 300], the pIC50 in the assay on HCV replicon 1AQ30D is 10.18; with HCV replicon 2B it was 10.96; in the assay on HCV replicon 1A it was 11.52; in the assay with HCV replicon 1AY93H it was 11.39; in the assay with HCV replicon 1B (Hepatitis C virus), 11.52.
With `CCc1ncc(C2Oc3cc(-c4cnc([C@@H]5CCCN5C(=O)[C@@H](NC(=O)OC)C(C)C)[nH]4)cc(F)c3-c3cc4cc(-c5cnc([C@@H]6CCCN6C(=O)[C@@H](NC(=O)OC)C(C)C)[nH]5)ccc4n32)s1` (single isomer, unassigned) [Compound 81], the IC50 in the assay on HCV replicon 1AQ30D was found to be 0.384 nM. Further, the pIC50 in the assay on HCV replicon 2B is 10.57; in the assay with HCV replicon 1A (Hepatitis C virus), 11.57; with HCV replicon 1AY93H it was 10.72; with HCV replicon 1B (Hepatitis C virus) it was 11.70.
`COC(=O)NC(C(=O)N1CCC[C@H]1c1ncc(-c2ccc3c(c2)cc2n3C(c3cnc(C4(C)CCCC4)s3)Oc3cc(-c4cnc([C@@H]5CCCN5C(=O)[C@@H](NC(=O)OC)C(C)C)[nH]4)cc(F)c3-2)[nH]1)C1CCOC(C)(C)C1` (single isomer, unassigned) [Compound 472]: the pIC50 with HCV replicon 1AQ30D is 8.57; with HCV replicon 2B it was 9.82; in the assay on HCV replicon 1A, 11.68; in the assay on HCV replicon 1AY93H, 9.26; with HCV replicon 1B it was 11.44.
In the case of `COC(=O)N[C@H](C(=O)N1CCC[C@H]1c1ncc(-c2cc(F)c3c(c2)OC(c2cnc(C4CC4)s2)n2c-3c(F)c3cc(-c4cnc([C@@H]5CCCN5C(=O)[C@@H](NC(=O)OC)C(C)C)[nH]4)ccc32)[nH]1)C(C)C` (single isomer, unassigned) [Compound 21], the 50% inhibitory concentration (IC50) with HCV replicon 1AQ30D was 0.494 nM. The pIC50 in the assay on HCV replicon 2B was 10.92; with HCV replicon 1AY93H, 10.75; in the assay on HCV replicon 1B (Hepatitis C virus), 11.40.
For `COC(=O)NC(C(=O)N1CCC[C@H]1c1ncc(-c2ccc3c(c2)cc2n3C(c3cnc(C4CCC4)s3)Oc3cc(-c4cnc([C@@H]5CCCN5C(=O)[C@@H](NC(=O)OC)C(C)C)[nH]4)cc(C)c3-2)[nH]1)C1C[C@@H](C)O[C@H](C)C1` (single isomer, unassigned) [Compound 220], the IC50 in the assay with HCV replicon 1AQ30D is 0.046 nM; in the assay on HCV replicon 1AY93H, 0.01 nM. Also, the pIC50 in the assay with HCV replicon 1A (Hepatitis C virus) is 11.40; with HCV replicon 1B (Hepatitis C virus), 11.30.
`COC(=O)N[C@H](C(=O)N1CCC[C@H]1c1ncc(-c2cc(F)c3c(c2)OC(c2cnc(C4(C)CCOCC4)s2)n2c-3cc3cc(-c4cnc([C@@H]5CCCN5C(=O)[C@@H](NC(=O)OC)C(C)C)[nH]4)ccc32)[nH]1)C(C)C` (mixture of isomers) [Compound 456]: the IC50 came to 0.559 nM with HCV replicon 1AQ30D, 0.316 nM in the assay with HCV replicon 2B and 0.021 nM in the assay with HCV replicon 1AY93H. Besides, the pIC50 in the assay with HCV replicon 1B (Hepatitis C virus) was 11.57.
For `COCc1ncc(C2Oc3cc(-c4cnc([C@@H]5CCCN5C(=O)[C@@H](NC(=O)OC)C(C)C)[nH]4)cc(F)c3-c3cc4cc(-c5cnc([C@@H]6CCCN6C(=O)[C@@H](NC(=O)OC)C(C)C)[nH]5)ccc4n32)s1` (single isomer, unassigned) [Compound 18], the IC50 in the assay with HCV replicon 1AQ30D is 0.072 nM. The negative-log IC50 (pIC50) is 10.80 in the assay with HCV replicon 2B, 11.16 with HCV replicon 1AY93H and 12.00 in the assay on HCV replicon 1B.
As for `COC(=O)N[C@H](C(=O)N1CCC[C@H]1c1ncc(-c2cc(F)c3c(c2)OC(c2cnc(C(C)C)s2)n2c-3cc3cc(-c4cnc([C@@H]5CCCN5C(=O)[C@@H](NC(=O)OC)C(C)C)[nH]4)ccc32)[nH]1)C(C)C` (single isomer, unassigned) [Compound 86], the IC50 is 0.187 nM in the assay on HCV replicon 1AQ30D and 0.0063 nM in the assay with HCV replicon 1AY93H. Besides, the negative logarithm of the IC50 (pIC50) was 10.55 in the assay on HCV replicon 2B and 11.70 in the assay on HCV replicon 1B (Hepatitis C virus).
With `COC(=O)N[C@H](C(=O)N1CCC[C@H]1c1ncc(-c2cc(F)c3c(c2)OC(c2cnc(Oc4ccc(F)cc4)s2)n2c-3cc3cc(-c4cnc([C@@H]5CCCN5C(=O)[C@@H](NC(=O)OC)C(C)C)[nH]4)ccc32)[nH]1)C(C)C` (single isomer, unassigned) [Compound 50], the pIC50 with HCV replicon 1AQ30D was 8.91; in the assay on HCV replicon 2B it was 9.80; in the assay on HCV replicon 1AY93H it was 9.92; in the assay with HCV replicon 1B it was 12.00.
With `CCCc1ncc(C2Oc3cc(-c4cnc([C@@H]5CCCN5C(=O)[C@@H](NC(=O)OC)C(C)C)[nH]4)cc(F)c3-c3cc4cc(-c5cnc([C@@H]6C[C@H]7C[C@H]7N6C(=O)C(NC(=O)OC)C6CCOC(C)(C)C6)[nH]5)ccc4n32)s1` (single isomer, unassigned) [Compound 105], the negative-log IC50 (pIC50) in the assay on HCV replicon 1AQ30D was 10.77; with HCV replicon 1A, 11.66; in the assay on HCV replicon 1AY93H, 11.54; with HCV replicon 1B it was 11.40.
For `COC(=O)N[C@H](C(=O)N1CCC[C@H]1c1ncc(-c2cc(F)c3c(c2)OC(c2csc(C4CC4)n2)n2c-3cc3cc(-c4cnc([C@@H]5CCCN5C(=O)[C@@H](NC(=O)OC)C(C)C)[nH]4)ccc32)[nH]1)C(C)C` (single isomer, unassigned) [Compound 433], the IC50 with HCV replicon 1AQ30D was 1.6 nM. For the same compound, the pIC50 in the assay on HCV replicon 2B was 9.52; with HCV replicon 1AY93H, 10.22; in the assay with HCV replicon 1B, 12.00.
For `COC(=O)N[C@H](C(=O)N1CCC[C@H]1c1ncc(-c2cc(F)c3c(c2)OC(c2ncc(-c4ccc(C#N)cc4)s2)n2c-3cc3cc(-c4cnc([C@@H]5CCCN5C(=O)[C@@H](NC(=O)OC)C(C)C)[nH]4)ccc32)[nH]1)C(C)C` (single isomer, unassigned) [Compound 44], the pIC50 was 9.11 in the assay with HCV replicon 1AQ30D, 10.27 in the assay on HCV replicon 2B, 9.99 in the assay with HCV replicon 1AY93H and 11.70 in the assay on HCV replicon 1B.
`COC(=O)NC(C(=O)N1CCC[C@H]1c1ncc(-c2ccc3c(c2)cc2n3C(c3cnc(C4CC4)s3)Oc3cc(-c4cnc([C@@H]5CCCN5C(=O)[C@@H](NC(=O)OC)C(C)C)[nH]4)cc(F)c3-2)[nH]1)C1C[C@@H](C)O[C@H](C)C1` (single isomer, unassigned) [Compound 305]: the pIC50 with HCV replicon 1AQ30D is 10.82; in the assay on HCV replicon 1A, 11.52; in the assay on HCV replicon 1AY93H it was 11.51; in the assay with HCV replicon 1B, 11.40.
